Measured values as given in ChEMBL document CHEMBL1201862, “PubChem BioAssay data set” (2004).
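Five concentrations, 48 hours, 96-well plates. GI50 marks 50% less growth.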 Activity calls are given as the source filed them. Rule as the data show it: active = GI50 up to about 1.1 µM and inactive = higher.

Columns and labels:
Assay in all cases: NCI tumour cell line growth inhibition, 48 h
[1] = system: SF-268
[2] = system: IGROV-1
[3] = system: EKVX
[4] = system: M14
[5] = system: COLO 205
[6] = system: PC-3
[7] = system: SNB-75
[8] = system: HCC 2998
[9] = system: NCI-H226
[10] = system: SN12C
[11] = system: MOLT-4
[12] = system: HCT-116
[13] = system: SK-MEL-28
[14] = system: A549
[15] = system: SNB-19
[16] = system: DU-145
[17] = system: TK-10
[18] = system: SF-295

Measured: GI50

COc1ccc2c(c1)CCCN2S(=O)(=O)c1ccccc1[N+](=O)[O-]
inactive: [1] 49.5 µM | [2] 34.3 µM | [3] 56 µM | [4] 40.8 µM | [5] 40.6 µM | [6] 34.9 µM | [7] 24.1 µM | [8] 35.6 µM | [9] 44.2 µM | [10] 65.6 µM | [11] 14.4 µM | [12] 24.2 µM | [13] 68.5 µM | [14] 53.7 µM | [15] > 73.3 µM | [16] 74.5 µM | [17] 54.8 µM | [18] 30.5 µM

Cc1cc(Nc2ccc(S(=O)(=O)O)c3cc(S(=O)(=O)O)cc(S(=O)(=O)O)c23)c2ccccc2n1
inactive: [1] > 100 µM | [2] > 100 µM | [3] > 100 µM | [4] > 100 µM | [5] > 100 µM | [6] > 100 µM | [7] > 100 µM | [8] > 100 µM | [9] > 100 µM | [10] > 100 µM | [11] > 100 µM | [12] > 100 µM | [13] > 100 µM | [14] > 100 µM | [15] > 100 µM | [16] > 100 µM | [17] > 100 µM | [18] > 100 µM

Cc1cn(C2CC(O)C(Cn3nncc3Cn3cnc4c(N)ncnc43)O2)c(=O)[nH]c1=O (configuration not stated)
inactive: [1] > 100 µM | [2] > 100 µM | [3] > 100 µM | [4] > 100 µM | [5] > 100 µM | [6] > 100 µM | [7] 58.3 µM | [8] > 100 µM | [9] > 100 µM | [10] > 100 µM | [11] > 100 µM | [12] > 100 µM | [13] > 100 µM | [14] > 100 µM | [15] > 100 µM | [16] > 100 µM | [17] > 100 µM | [18] > 100 µM

CCOP(=O)(OCC)C(c1ccc(F)cc1)N(C(=O)NC(F)(F)F)c1ccc(F)cc1 (configuration not stated)
inactive: [1] > 100 µM | [2] > 100 µM | [3] > 100 µM | [4] > 100 µM | [5] > 100 µM | [6] > 100 µM | [7] > 100 µM | [8] > 100 µM | [9] > 100 µM | [10] > 100 µM | [11] > 100 µM | [12] > 100 µM | [13] > 100 µM | [14] > 100 µM | [15] > 100 µM | [16] > 100 µM | [17] > 100 µM | [18] > 100 µM
